In experiment [1] the test system is NCI 60-cell in vitro panel. In words: NCI 60-cell in vitro panel, mean panel. The experiment is classed as cell-based, human. As to conditions: Homo sapiens, 60 cell; average ±SEM from the 40 cell lines that yielded GI50 values for both 4a and 5. The source says:
Individual cell line response values are provided in the Experimental.

Another experiment relates to HL-60 (TB). In words: NCI 60-cell screen. The class given is cell-based, human. The settings on record: Homo sapiens, averaged, quadruplicate, upper limit 10^−5 M, read-out: negative log10 GI50 (converted).
A further experiment deals with K-562. In words: NCI 60-cell screen. The class given is cell-based, human. As to conditions: Homo sapiens, K562, averaged, quadruplicate, upper limit 10^−5 M, read-out: negative log10 GI50 (converted).
For another experiment, the system named is MOLT-4. The experiment can be described thus: NCI 60-cell screen. The class given is cell-based, human. As to conditions: Homo sapiens, averaged, quadruplicate, upper limit 10^−5 M, read-out: negative log10 GI50 (converted).
The next experiment relates to RPMI-8226. In words: NCI 60-cell screen. The class given is cell-based, human. As to conditions: Homo sapiens, averaged, quadruplicate, upper limit 10^−5 M, read-out: negative log10 GI50 (converted).
Another experiment deals with SR. The experiment can be described thus: NCI 60-cell screen. The experiment is classed as cell-based, human. The settings on record: Homo sapiens, averaged, quadruplicate, upper limit 10^−5 M, read-out: negative log10 GI50 (converted).
The next experiment concerns A549/ATCC. The experiment can be described thus: NCI 60-cell screen. As to conditions: Homo sapiens, averaged, quadruplicate, upper limit 10^−5 M, read-out: negative log10 GI50 (converted). The class given is cell-based, human.
The subject of the next experiment is NCI-H226. In words: NCI 60-cell screen. The experiment is classed as cell-based, human. The settings on record: Homo sapiens, averaged, quadruplicate, upper limit 10^−5 M, read-out: negative log10 GI50 (converted).
Another experiment concerns KM 12. The experiment can be described thus: NCI 60-cell screen. The class given is cell-based, human. The settings on record: Homo sapiens, KM12, averaged, quadruplicate, upper limit 10^−5 M, read-out: negative log10 GI50 (converted).
The test system of the next experiment is SF-539. The experiment can be described thus: NCI 60-cell screen. The experiment is classed as cell-based, human. The settings on record: Homo sapiens, averaged, quadruplicate, upper limit 10^−5 M, read-out: negative log10 GI50 (converted).
The next experiment concerns SK-MEL-5. In words: NCI 60-cell screen. The settings on record: Homo sapiens, averaged, quadruplicate, upper limit 10^−5 M, read-out: negative log10 GI50 (converted). The experiment is classed as cell-based, human.
A further experiment relates to ACHN. The experiment can be described thus: NCI 60-cell screen. The class given is cell-based, human. The settings on record: Homo sapiens, averaged, quadruplicate, upper limit 10^−5 M, read-out: negative log10 GI50 (converted).
For another experiment, the system named is RXF-393. In words: NCI 60-cell screen. The settings on record: Homo sapiens, averaged, quadruplicate, upper limit 10^−5 M, read-out: negative log10 GI50 (converted). The experiment is classed as cell-based, human.
The next experiment relates to MCF7. The experiment can be described thus: NCI 60-cell screen. The class given is cell-based, human. As to conditions: Homo sapiens, averaged, quadruplicate, upper limit 10^−5 M, read-out: negative log10 GI50 (converted).
A further experiment has as its system MCF7/ADR-RES. In words: NCI 60-cell screen. The experiment is classed as cell-based, human. The settings on record: Homo sapiens, averaged, quadruplicate, upper limit 10^−5 M, read-out: negative log10 GI50 (converted).
The next experiment concerns MDA-MB-435. The experiment can be described thus: NCI 60-cell screen. The class given is cell-based, human. The settings on record: Homo sapiens, averaged, quadruplicate, upper limit 10^−5 M, read-out: negative log10 GI50 (converted).
The subject of a further experiment is MDA-N. The experiment can be described thus: NCI 60-cell screen. As to conditions: Homo sapiens, averaged, quadruplicate, upper limit 10^−5 M, read-out: negative log10 GI50 (converted). The class given is cell-based, human.
The test system of another experiment is T-47D. The experiment can be described thus: NCI 60-cell screen. The experiment is classed as cell-based, human. The settings on record: Homo sapiens, T47D, averaged, quadruplicate, upper limit 10^−5 M, read-out: negative log10 GI50 (converted).
For experiment [2], the system named is Cryptococcus neoformans (ATCC 90112). The experiment can be described thus: Antimicrobial disk diffusion. The class given is cell-based. A general note: Agar diffusion results depend on both activity and mobility in agar.
For experiment [3], the system named is Micrococcus luteus (Presque Isle 456). In words: Antimicrobial disk diffusion. The experiment is classed as cell-based. The settings on record: listed as 5.
For experiment [4], the system named is Streptococcus pneumoniae (ATCC 6303). In words: Antimicrobial disk diffusion. The class given is cell-based. The settings on record: listed as 5.
Experiment [5] deals with Stenotrophomonas maltophilia (ATCC 13637). The experiment can be described thus: Antimicrobial disk diffusion. The experiment is classed as cell-based.
Experiment [6] concerns Escherichia coli (ATCC 25922). The experiment can be described thus: Antimicrobial disk diffusion. The experiment is classed as cell-based.
Experiment [7] deals with Neisseria gonorrhoeae (ATCC 49226). The experiment can be described thus: Antimicrobial disk diffusion. The class given is cell-based.

Molecules are shown by their SMILES.

The results in this text go back to patent publication US6437128B1, “Cribrostatins 3-5” (Arizona Board of Regents, priority 2001, dated 2002).

A word on the GI50: it is the concentration at which growth is held to half of that of the control. With `C/C=C(/C)C(=O)OC[C@H]1C2=C(C=C3[C@H]4c5c(O)c(OC)c(C)c(O)c5C(=O)[C@@H](C(=O)N31)N4C)C(=O)C(C)=C(OC)C2=O` [Cribrostatin 4, cribrostatin 4], the 50% growth inhibitory concentration (GI50) is 5.01 µM in [1]; 5.37 µM in the experiment with HL-60 (TB); 4.37 µM in the experiment on K-562; 1.91 µM in the experiment on MOLT-4; 6.17 µM with RPMI-8226; 3.8 µM with SR. Besides, the GI50 in the experiment on A549/ATCC was 8.71 µM; with NCI-H226, 7.94 µM; with KM 12 it was 9.12 µM; with SF-539 it was 5.75 µM; in the experiment on SK-MEL-5, 8.13 µM; with ACHN, 7.94 µM. The GI50 with RXF-393 was 5.25 µM; in the experiment with MCF7 it was 8.13 µM; with MCF7/ADR-RES, 6.76 µM; with MDA-MB-435, 1.82 µM; with MDA-N, 2.19 µM; in the experiment on T-47D, 2.09 µM. Further, the Minimum inhibitory concentration result in experiment [2] is recorded as “* (No inhibition at 100 μg/disk)”; in [3], “* (No inhibition at 100 μg/disk)”; in experiment [4], 6.25-12.5 μg/disk; in experiment [5], “* (No inhibition at 100 μg/disk)”; in experiment [6] it was “* (No inhibition at 100 μg/disk)”; in [7], 6.25-12.5 μg/disk.
